Experimental data as given in patent US20260324636A1, “COMPOSITION FOR PROVIDING PLANT WITH STRESS RESISTANCE” (KIRIN HOLDINGS KABUSHIKI KAISHA, priority 2022, published 2026).

Assays:
[1] = test system: rice; assay: Oxidation stress resistance against methyl viologen in rice (leaf chlorosis, chlorophyll content), Example 9; assay type: in vivo, rice (variety: Nipponbare); details: 0.5 mM, 2.5 μM methyl viologen, 30° C. 3 days
Description: A rice strain (the variety: Nipponbare) was used as an experimental material. Rice seeds were purchased from Nouken.
A Murashige and Skoog Plant Salt Mixture (2.2 g) was dissolved in 1 l of pure water, a pH was adjusted to 5.8, and the resultant was autoclaved (121° C., 20 minutes).
Seeds were sterilized by incubation with the use of a Kitchen Haiter® diluted to 2-fold with pure water for 20 minutes. The sterilized seeds were washed 3 times with sterile water, 30 grains of seeds were soaked in a 50-ml conical tube (Falcon) containing 10 ml of sterile water, and the seeds were cultured in an incubator maintained at 30° C. (16 hours light and 8 hours darkness) for 3 days to germinate the seeds.
After the seeds were incubated for 3 days, the growth medium was dispensed at 3 ml/well to the sterilized 12-well microplate (IWAKI), and the germinated seeds were seeded at 3 grains/well. To each well, 0.5 mM N-acetylglutamic acid or an equivalent amount of sterile water was added, and the seeds were incubated at 30° C. for 1 day. […]
Leaf chlorosis is observed in plants upon oxidation stress exposure. Thus, an extent of chlorosis was evaluated by measuring the content of the green pigment chlorophyll in leaves. […] The chlorophyll content was calculated in the same manner as in Example 1.

[2] = test system: HSP17.6C; assay: HSP17.6C gene expression by real-time PCR, Example 5; assay type: in vivo; details: Arabidopsis thaliana; 0.1 mM in medium, 6 hours after application, 22° C.; read-out: HSP17.6C expression level, increase vs control group
Description: The materials as used in Example 1 were used.
The method as employed in Example 1 was employed.
N-acetylglutamic acid was applied to Arabidopsis thaliana 7 days after inoculation to the final concentration of 0.1 mM in the medium, followed by incubation for 2 hours or 6 hours. The incubator was maintained at a temperature of 22° C. for a daily cycle of 16 hours light and 8 hours darkness. After incubation, the samples were frozen with liquid nitrogen, and RNA was extracted using the RNeasy Plant Mini Kit (Thermo Fischer Scientific).
cDNA that would be necessary as a real-time PCR template was synthesized from the RNA obtained. 500 ng total RNA was used for each sample, and cDNA was synthesized using the Verso cDNA Synthesis Kit (Thermo Fischer Scientific). The synthesized cDNA was diluted to 5-fold with sterile distilled water and subjected to real-time PCR. For real-time PCR, a reaction solution containing HSFA2 (AGI code: AT2G26150) and HSP17.6C (AGI code: AT1G53540) as the target genes, ACTIN2 (AGI code: AT3G18780) as the reference gene, and TB Green Ex Taq II (TaKaRa) was prepared. PCR was performed with the use of the LightCycler® 480 System (Roche) with the number of amplification cycles of 50. […]
Thereafter, the relative expression level of the target genes upon N-acetylglutamic acid treatment were calculated by the ΔΔCt method using the Cp values obtained by real-time PCR.

CC(=O)N[C@@H](CCC(=O)O)C(=O)O [N-acetylglutamic acid]
leaf chlorosis in MV-treated group [1]: substantially no leaf chlorosis was observed | chlorophyll content of the MV-treated groups ([1]; second leaf, fresh weight basis): increased | fold induction at 100 µM [2]: 1.2
